In publication PMC7381729, “A new class of PentixaFor- and PentixaTher-based theranostic agents with enhanced CXCR4-targeting efficiency” (Theranostics, 2020):
Like-named read-outs stand apart in the source and are kept apart here. Where a SMILES comes first, the peptide text is derived from it. Side-chain parts run from the residue outwards. [ ]: non-standard residue; d: D form. The star is where a group is joined. DOTA = O=C(O)CN1CCN(CC(=O)O)CCN(CC(=O)*)CCN(CC(=O)O)CC1; 2Nal = N[C@@H](Cc1ccc2ccccc2c1)C(=O)O; dNMeOrn = CN[C@H](CCCN)C(=O)O; 4Abz = Nc1ccc(C(=O)O)cc1

Assays:
[1] = Biodistribution in Daudi xenograft bearing mice; format: in vivo, mouse; settings: female, CB-17 SCID, mouse, iv, total radioactivity, 1h p.i., means ± SD
Method in brief: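 Female CB-17 SCID mice with Daudi xenografts (n=4-5) received 5-10 MBq (0.08-0.11 nmol) ^68Ga- or ^177Lu-labelled ligand i.v.; blocking by coinjected 50 µg AMD3100. Organs counted by γ-counter at 1, 6 and 48 h p.i.; %ID/g (mean ± SD).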

[2] = Small animal PET imaging in Daudi xenograft bearing mice; format: in vivo; settings: CB17 SCID, mouse, iv, total radioactivity, 90 min p.i., dynamic PET, ROI analysis, n=1 per compound
Procedure: Small aminal PET imaging studies were performed using a Siemens Inveon PET scanner. Animals were anesthetized with isoflurane and injected via the tail vein with 10 to 15 MBq (0.1 nmol) of the respective tracer. Dynamic imaging (n=1 per compound) was performed after on-bed injection for 1.5 h, and static images (n=1 per compound) were acquired at 1 h p.i. with an acquisition time of 15 min. Data analysis was performed using the Inveon Research Workplace software. Images were reconstructed using a 3D ordered-subsets expectation maximum (OSEM3D) algorithm without scanner and attenuation correction. Time-activity curves (Figure 4) were obtained by generating isocontour regions of interest (ROI) for the tumor and the heart content (as a surrogate for blood activity), as well as by defining two spherical ROIs (each 23.4 mm^3) in the thigh area (muscle) and areas of homogenous tracer uptake in the liver, followed by plotting of average activity ± SD per volume in these ROIs over time.  Figure 4 Results from small animal PET imaging using [^68Ga]PentixaFor (top row), [^68Ga]DOTA-r-a-ABA-CPCR4 (middle row) and [^68Ga]DOTA-r-a-ABA-iodoCPCR4 (bottom row) in Daudi xenograft bearing CB17 SCID mice. Images on the left (MIP) were obtained by static imaging (1h p.i., n=1), the time activity curves (TAC) on the right were acquired by dynamic PET imaging (0-90 min p.i., n=1).

## C[C@@H](NC(=O)[C@@H](CCCNC(=N)N)NC(=O)CN1CCN(CC(=O)O)CCN(CC(=O)O)CCN(CC(=O)O)CC1)C(=O)Nc1ccc(C(=O)NCCC[C@@H]2C(=O)N[C@@H](CCCNC(=N)N)C(=O)N[C@@H](Cc3ccc4ccccc4c3)C(=O)NCC(=O)N[C@H](Cc3ccc(O)cc3)C(=O)N2C)cc1 [[^68Ga]DOTA-r-a-ABA-CPCR4, metal not drawn] (cyclo([2Nal]G[dY][dNMeOrn]([4Abz-dA-dR-DOTA])R))
[1]; adrenals, tracer only, i.v., γ-counter, n=4-5 (68Ga: n=4), read-out: Biodistribution adrenals
  tissue uptake at 1 h: 1.9 ± 1.14 %ID/g
[1]; adrenals, with AMD3100, 50 µg per animal, coinjected (CXCR4 competition), coinjection of 50 µg AMD3100/animal, n=3, read-out: Biodistribution adrenals, competition with AMD3100
  tissue uptake at 1 h: 1.02 ± 0.27 %ID/g
[1]; blood, with AMD3100, 50 µg per animal, coinjected (CXCR4 competition), coinjection of 50 µg AMD3100/animal, n=3, read-out: Biodistribution blood, competition with AMD3100
  tissue uptake at 1 h: 2.98 ± 0.57 %ID/g
[1]; colon, tracer only, i.v., γ-counter, n=4-5 (68Ga: n=4), read-out: Biodistribution colon
  tissue uptake at 1 h: 0.67 ± 0.13 %ID/g
[1]; colon, with AMD3100, 50 µg per animal, coinjected (CXCR4 competition), coinjection of 50 µg AMD3100/animal, n=3, read-out: Biodistribution colon, competition with AMD3100
  tissue uptake at 1 h: 0.47 ± 0.09 %ID/g
[1]; femur, tracer only, i.v., γ-counter, n=4-5 (68Ga: n=4), read-out: Biodistribution femur
  tissue uptake at 1 h: 1.27 ± 0.32 %ID/g
[1]; femur, with AMD3100, 50 µg per animal, coinjected (CXCR4 competition), coinjection of 50 µg AMD3100/animal, n=3, read-out: Biodistribution femur, competition with AMD3100
  tissue uptake at 1 h: 0.74 ± 0.11 %ID/g
[1]; heart, tracer only, i.v., γ-counter, n=4-5 (68Ga: n=4), read-out: Biodistribution heart
  tissue uptake at 1 h: 1.51 ± 0.25 %ID/g
[1]; heart, with AMD3100, 50 µg per animal, coinjected (CXCR4 competition), coinjection of 50 µg AMD3100/animal, n=3, read-out: Biodistribution heart, competition with AMD3100
  tissue uptake at 1 h: 1.37 ± 0.33 %ID/g
[1]; kidney, tracer only, i.v., γ-counter, n=4-5 (68Ga: n=4), read-out: Biodistribution kidney
  tissue uptake at 1 h: 11.5 ± 3.58 %ID/g
[1]; kidney, with AMD3100, 50 µg per animal, coinjected (CXCR4 competition), coinjection of 50 µg AMD3100/animal, n=3, read-out: Biodistribution kidney, competition with AMD3100
  tissue uptake at 1 h: 7.16 ± 1.62 %ID/g
[1]; liver, with AMD3100, 50 µg per animal, coinjected (CXCR4 competition), coinjection of 50 µg AMD3100/animal, n=3, read-out: Biodistribution liver, competition with AMD3100
  tissue uptake at 1 h: 4.62 ± 0.56 %ID/g
[1]; lung, tracer only, i.v., γ-counter, n=4-5 (68Ga: n=4), read-out: Biodistribution lung
  tissue uptake at 1 h: 3.15 ± 0.5 %ID/g
[1]; lung, with AMD3100, 50 µg per animal, coinjected (CXCR4 competition), coinjection of 50 µg AMD3100/animal, n=3, read-out: Biodistribution lung, competition with AMD3100
  tissue uptake at 1 h: 3.12 ± 0.57 %ID/g
[1]; muscle, tracer only, i.v., γ-counter, n=4-5 (68Ga: n=4), read-out: Biodistribution muscle
  tissue uptake at 1 h: 0.45 ± 0.05 %ID/g
[1]; muscle, with AMD3100, 50 µg per animal, coinjected (CXCR4 competition), coinjection of 50 µg AMD3100/animal, n=3, read-out: Biodistribution muscle, competition with AMD3100
  tissue uptake at 1 h: 0.4 ± 0.11 %ID/g
[1]; pancreas, tracer only, i.v., γ-counter, n=4-5 (68Ga: n=4), read-out: Biodistribution pancreas
  tissue uptake at 1 h: 0.68 ± 0.01 %ID/g
[1]; pancreas, with AMD3100, 50 µg per animal, coinjected (CXCR4 competition), coinjection of 50 µg AMD3100/animal, n=3, read-out: Biodistribution pancreas, competition with AMD3100
  tissue uptake at 1 h: 0.69 ± 0.07 %ID/g
[1]; small intestine, tracer only, i.v., γ-counter, n=4-5 (68Ga: n=4), read-out: Biodistribution small intestine
  tissue uptake at 1 h: 0.94 ± 0.13 %ID/g
[1]; small intestine, with AMD3100, 50 µg per animal, coinjected (CXCR4 competition), coinjection of 50 µg AMD3100/animal, n=3, read-out: Biodistribution small intestine, competition with AMD3100
  tissue uptake at 1 h: 0.94 ± 0.31 %ID/g
[1]; spleen, tracer only, i.v., γ-counter, n=4-5 (68Ga: n=4), read-out: Biodistribution spleen
  tissue uptake at 1 h: 2.01 ± 0.19 %ID/g
[1]; spleen, with AMD3100, 50 µg per animal, coinjected (CXCR4 competition), coinjection of 50 µg AMD3100/animal, n=3, read-out: Biodistribution spleen, competition with AMD3100
  tissue uptake at 1 h: 2.38 ± 0.23 %ID/g
[1]; stomach, tracer only, i.v., γ-counter, n=4-5 (68Ga: n=4), read-out: Biodistribution stomach
  tissue uptake at 1 h: 1.2 ± 0.1 %ID/g
[1]; stomach, with AMD3100, 50 µg per animal, coinjected (CXCR4 competition), coinjection of 50 µg AMD3100/animal, n=3, read-out: Biodistribution stomach, competition with AMD3100
  tissue uptake at 1 h: 0.97 ± 0.32 %ID/g
[1]; tumor (Daudi xenograft), tracer only, i.v., γ-counter, n=4-5 (68Ga: n=4), read-out: Biodistribution tumor (Daudi xenograft)
  tissue uptake at 1 h: 11.7 ± 1.31 %ID/g
[1]; tumor (Daudi xenograft), with AMD3100, 50 µg per animal, coinjected (CXCR4 competition), coinjection of 50 µg AMD3100/animal, n=3, read-out: Biodistribution tumor, competition with AMD3100
  tissue uptake at 1 h: 2.52 ± 0.36 %ID/g
[2]; kidney, read-out: Kidney uptake in PET
  tissue uptake per volume at 1.5 h: 9.4 ± 0.2 %ID/mL
[2]; liver, average ± SD per volume in ROI, read-out: Liver uptake in PET
  tissue uptake per volume at 1.5 h: 6 ± 0.2 %ID/mL
[2]; tumor (Daudi xenograft), Daudi xenograft, read-out: Tumor accumulation in PET
  tissue uptake per volume at 1.5 h: 12 ± 0.7 %ID/mL
